Common to all, as to type: in vivo
Series [1] concerns Beet Armyworm (Spodoptera exigua, LAPHEG). Description: Bioassay on Beet Armyworm (BAW), 128-well diet tray assay. Particulars: 168 h, 50 μg/cm^2 on artificial diet, second instar larvae, five to seven days, 25° C., read-out: BAW % Control (or Mortality) rating. The method in brief: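 Mortality of second-instar larvae (one to five per well) was scored after five to seven days at 25 °C under 14:10 light-dark and averaged across eight wells. Each well's diet had received 50 μg/cm^2 test molecule from a 90:10 acetone-water solution, allowed to dry before infestation.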

The test system of series [2] is Cabbage Looper (Trichoplusia ni, TRIPNI). Description: Bioassay on Cabbage Looper (CL), 128-well diet tray assay. As to conditions: 168 h, 50 μg/cm^2 on artificial diet, second instar larvae, five to seven days, 25° C., read-out: CL % Control (or Mortality) rating. The method in brief:
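Percent mortality, averaged over eight wells, scored after five to seven days at 25° C. under 14:10 light-dark. Each well held 1–5 second-instar larvae on artificial diet treated with 50 μg/cm^2 test molecule applied in 90:10 acetone-water and dried.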

For series [3], the system named is Yellow Fever Mosquito (Aedes aegypti, AEDSAE). As to conditions: about 1 day-old larvae, 3 days, room temperature, scored on mortality. The essentials: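 Compounds from DMSO master plates (4000 ppm stock) diluted with 90:10 water:acetone, then about 1-day-old larvae in liver-powder water added. Held covered at room temperature for 3 days; each well scored for mortality.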

Turning to `O=C(NCCSC(F)(F)F)c1ccc(/C(F)=C/C(c2cc(Cl)c(Cl)c(Cl)c2)C(F)(F)F)cc1C(F)(F)F` (stereo not drawn) [F92, (Z)-4-(1,4,4,4-tetrafluoro-3-(3,4,5-trichlorophenyl)but-1-en-1-yl)-2-(trifluoromethyl)-N-(2-((trifluoromethyl)thio)ethyl)benzamide], the mortality at 50 µg/cm2 in series [1] and in series [2] was 50 to 100% throughout. Moreover, the “YFM % Control (or Mortality) rating” value in series [3] is “B (More than 0-Less than 80)”.
Turning to `C[C@H](CS(=O)(=O)CC(F)(F)F)NC(=O)c1ccc(/C(F)=C/C(c2ccc(C(F)(F)F)c(Br)c2)C(F)(F)F)cc1C(F)(F)F` (stereo partly drawn) [F95, 4-((Z)-3-(3-Bromo-4-(trifluoromethyl)phenyl)-1,4,4,4-tetrafluorobut-1-en-1-yl)-N—((R)-1-((2,2,2-trifluoroethyl)sulfonyl)propan-2-yl)-2-(trifluoromethyl)benzamide], the mortality at 50 µg/cm2 in series [1] and in series [2] was 50 to 100% throughout. Also, the “YFM % Control (or Mortality) rating” value in series [3] is reported as “A (80-100)”.
As to `C[C@H](CS(=O)(=O)CC(F)(F)F)NC(=O)c1ccc(/C(F)=C/C(c2cc(Cl)c(Cl)c(Cl)c2)C(F)F)cc1C(F)(F)F` (stereo partly drawn) [F98, 4-((Z)-1,4,4-Trifluoro-3-(3,4,5-trichlorophenyl)but-1-en-1-yl)-N—((R)-1-((2,2,2-trifluoroethyl)sulfonyl)propan-2-yl)-2-(trifluoromethyl)benzamide], the mortality at 50 µg/cm2 in series [1] and in series [2] was 50 to 100% in each case. Moreover, the “YFM % Control (or Mortality) rating” value in series [3] was “A (80-100)”.
Regarding `C[C@H](C[S+]([O-])CCF)NC(=O)c1ccc(/C(F)=C/C(c2cc(Cl)c(Cl)c(Cl)c2)C(F)(F)F)cc1C(F)(F)F` (stereo partly drawn) [F99, N-((2R)-1-((2-Fluoroethyl)sulfinyl)propan-2-yl)-4-((Z)-1,4,4,4-tetrafluoro-3-(3,4,5-trichlorophenyl)but-1-en-1-yl)-2-(trifluoromethyl)benzamide], the mortality at 50 µg/cm2 in series [1] and in series [2] was 50 to 100% throughout. Further, the “YFM % Control (or Mortality) rating” value in series [3] is “A (80-100)”.
`C[C@H](CSCC(F)(F)F)NC(=O)c1ccc(/C(F)=C/C(c2ccc(F)c(C(F)(F)F)c2)C(F)(F)F)cc1C(F)(F)F` (stereo partly drawn) [F102, 4-((Z)-1,4,4,4-Tetrafluoro-3-(4-fluoro-3-(trifluoromethyl)phenyl)but-1-en-1-yl)-N—((R)-1-((2,2,2-trifluoroethyl)thio)propan-2-yl)-2-(trifluoromethyl)benzamide]: the mortality at 50 µg/cm2 in series [1] and in series [2] was 50 to 100% each time. Also, the “YFM % Control (or Mortality) rating” value in series [3] was “A (80-100)”.
For `C[C@H](CS(=O)(=O)CC(F)(F)F)NC(=O)c1ccc(/C(F)=C/C(c2cc(F)c(F)c(Cl)c2)C(F)(F)F)cc1C(F)(F)F` (stereo partly drawn) [F103, 4-((Z)-3-(3-Chloro-4,5-difluorophenyl)-1,4,4,4-tetrafluorobut-1-en-1-yl)-N—((R)-1-((2,2,2-trifluoroethyl)sulfonyl)propan-2-yl)-2-(trifluoromethyl)benzamide], the mortality at 50 µg/cm2 in series [1] and in series [2] was 50 to 100% in each case. For the same compound, the “YFM % Control (or Mortality) rating” value in series [3] was “A (80-100)”.
Regarding `C=Cc1c(Cl)cc(C(/C=C(\F)c2ccc(C(=O)N[C@H](C)CS(=O)(=O)CC)c(C(F)(F)F)c2)C(F)(F)F)cc1Cl` (stereo partly drawn) [F119, 4-((Z)-3-(3,5-Dichloro-4-vinylphenyl)-1,4,4,4-tetrafluorobut-1-en-1-yl)-N—((R)-1-(ethylsulfonyl)propan-2-yl)-2-(trifluoromethyl)benzamide], the mortality at 50 µg/cm2 in series [1] and in series [2] was 50 to 100% in each case. Also, the “YFM % Control (or Mortality) rating” value in series [3] is recorded as “A (80-100)”.
In the case of `C[C@H](C[S+]([O-])CCC(F)(F)F)NC(=O)c1ccc(/C(F)=C/C(c2cc(Cl)c(Cl)c(Cl)c2)C(F)(F)F)cc1C(F)(F)F` (stereo partly drawn) [F121, 4-((Z)-1,4,4,4-Tetrafluoro-3-(3,4,5-trichlorophenyl)but-1-en-1-yl)-2-(trifluoromethyl)-N-((2R)-1-((3,3,3-trifluoropropyl)sulfinyl)propan-2-yl)benzamide], the mortality at 50 µg/cm2 in series [1] and in series [2] was 50 to 100% in each case. The “YFM % Control (or Mortality) rating” value in series [3] is listed as “A (80-100)”.
As for `O=C(NCCSCCF)c1ccc(/C(F)=C/C(c2cc(Cl)c(Cl)c(Cl)c2)C(F)(F)F)cc1C(F)(F)F` (stereo not drawn) [F125, (Z)—N-(2-((2-Fluoroethyl)thio)ethyl)-4-(1,4,4,4-tetrafluoro-3-(3,4,5-trichlorophenyl)but-1-en-1-yl)-2-(trifluoromethyl)benzamide], the mortality at 50 µg/cm2 in series [1] and in series [2] was 50 to 100% each time. Besides, in series [3], the “YFM % Control (or Mortality) rating” value was “D (No activity noticed in this bioassay)”.
`C[C@H](CS(=O)(=O)CCC(F)(F)F)NC(=O)c1ccc(/C(F)=C/C(c2cc(Cl)c(Cl)c(Cl)c2)C(F)(F)F)cc1C(F)(F)F` (stereo partly drawn) [F130, 4-((Z)-1,4,4,4-tetrafluoro-3-(3,4,5-trichlorophenyl)but-1-en-1-yl)-2-(trifluoromethyl)-N—((R)-1-((3,3,3-trifluoropropyl)sulfonyl)propan-2-yl)benzamide]: the mortality at 50 µg/cm2 in series [1] and in series [2] was 50 to 100% throughout. In series [3], the “YFM % Control (or Mortality) rating” value is “B (More than 0-Less than 80)”.
On to `CCC(F)(F)c1cc(Cl)cc(C(/C=C(\F)c2ccc(C(=O)N[C@H](C)CS(=O)(=O)CC(F)(F)F)c(C(F)(F)F)c2)C(F)(F)F)c1` (stereo partly drawn) [F131, 4-((Z)-3-(3-Chloro-5-(1,1-difluoropropyl)phenyl)-1,4,4,4-tetrafluorobut-1-en-1-yl)-N—((R)-1-((2,2,2-trifluoroethyl)sulfonyl)propan-2-yl)-2-(trifluoromethyl)benzamide], for which the mortality at 50 µg/cm2 in series [1] and in series [2] was 50 to 100% each time. Moreover, the “YFM % Control (or Mortality) rating” value in series [3] is recorded as “A (80-100)”.
`CCc1ccc(C(/C=C(\F)c2ccc(C(=O)N[C@H](C)CS(=O)(=O)CC(F)(F)F)c(C(F)(F)F)c2)C(F)(F)F)cc1Cl` (stereo partly drawn) [F141, 4-((Z)-3-(3-Chloro-4-ethylphenyl)-1,4,4,4-tetrafluorobut-1-en-1-yl)-N—((R)-1-((2,2,2-trifluoroethyl)sulfonyl)propan-2-yl)-2-(trifluoromethyl)benzamide]: the mortality at 50 µg/cm2 in series [1] and in series [2] was 50 to 100% throughout. In addition, the “YFM % Control (or Mortality) rating” value in series [3] was “D (No activity noticed in this bioassay)”.
For the compound `COc1ccc(C(/C=C(\F)c2ccc(C(=O)N[C@H](C)CS(=O)(=O)CC(F)(F)F)c(C(F)(F)F)c2)C(F)(F)F)cc1Cl` (stereo partly drawn) [F142, 4-((Z)-3-(3-Chloro-4-methoxyphenyl)-1,4,4,4-tetrafluorobut-1-en-1-yl)-N—((R)-1-((2,2,2-trifluoroethyl)sulfonyl)propan-2-yl)-2-(trifluoromethyl)benzamide], the mortality at 50 µg/cm2 in series [1] and in series [2] was 50 to 100% throughout. The “YFM % Control (or Mortality) rating” value in series [3] is reported as “B (More than 0-Less than 80)”.
As to `CCCC(F)(F)c1cc(Cl)cc(C(/C=C(\F)c2ccc(C(=O)N[C@H](C)CS(=O)(=O)CC(F)(F)F)c(C(F)(F)F)c2)C(F)(F)F)c1` (stereo partly drawn) [F143, 4-((Z)-3-(3-Chloro-5-(1,1-difluorobutyl)phenyl)-1,4,4,4-tetrafluorobut-1-en-1-yl)-N—((R)-1-((2,2,2-trifluoroethyl)sulfonyl)propan-2-yl)-2-(trifluoromethyl)benzamide], the mortality at 50 µg/cm2 in series [1] and in series [2] was 50 to 100% throughout. The “YFM % Control (or Mortality) rating” value in series [3] is on record as “D (No activity noticed in this bioassay)”.
As to `C[C@H](CS(=O)(=O)CC(F)(F)F)NC(=O)c1ccc(/C(F)=C/C(c2cc(Cl)c(Cl)c(Cl)c2)C(F)(F)F)c2ccccc12` (stereo partly drawn) [PF1, 4-((Z)-1,4,4,4-Tetrafluoro-3-(3,4,5-trichlorophenyl)but-1-en-1-yl)-N—((R)-1-((2,2,2-trifluoroethyl)sulfonyl)propan-2-yl)-1-naphthamide], the mortality at 50 µg/cm2 in series [1] and in series [2] was 50 to 100% in each case. For the same compound, the “YFM % Control (or Mortality) rating” value in series [3] is on record as “A (80-100)”.
As for `C[C@H](CS(=O)(=O)CC(F)(F)F)NC(=O)c1ccc(/C(F)=C/C(c2ccc(Br)c(Cl)c2)C(F)(F)F)cc1C(F)(F)F` (stereo partly drawn) [PF5, 4-((Z)-3-(4-Bromo-3-chlorophenyl)-1,4,4,4-tetrafluorobut-1-en-1-yl)-N—((R)-1-((2,2,2-trifluoroethyl)sulfonyl)propan-2-yl)-2-(trifluoromethyl)benzamide], the mortality at 50 µg/cm2 in series [1] and in series [2] was 50 to 100% each time. Besides, in series [3], the “YFM % Control (or Mortality) rating” value is “B (More than 0-Less than 80)”.

As a reminder, the mortality is the percentage killed.

The values are drawn from patent publication US10681908B2, “Molecules having pesticidal utility, and intermediates, compositions, and processes, related thereto” (Dow AgroSciences LLC, priority 2016, dated 2020).
